The results in this text go back to patent publication US3980794A, “Method for promoting growth of poultry with 3-(5-nitro-2-imidazolyl)pyrazoles” (Eli Lilly and Company, priority 1975, dated 1976).

In brackets after ≈: the same amount, converted by molar mass. Where two headings read alike, the source gives them in different places. A value given as a limit tells only on which side of the number the result lay.

Format in all cases: cell-based
One assay relates to Clostridium ramosum 1313. Put plainly: Susceptibility of anaerobic bacteria, agar dilution. To be noted: read-out: 24 Hr. Minimum Inhibitory Concentration. For orientation: Agar dilution tests growth on a series of plates holding different concentrations.
For assay [1], the system named is Bacteroides fragilis sp. fragilis 1877. The assay is described as above. To be noted: 24 h, read-out: 24 Hr. Minimum Inhibitory Concentration.
The subject of assay [2] is Peptococcus anaerobius 1428. The description is as above. As to conditions: 24 h, read-out: 24 Hr. Minimum Inhibitory Concentration.
For assay [3], the system named is Bacteroides fragilis sp. fragilis 1936B. Described as above. To be noted: 24 h, read-out: 24 Hr. Minimum Inhibitory Concentration.
For assay [4], the system named is Peptostreptococcus intermedius 1264. The description is as above. To be noted: 24 h; Peptostreptococcus intermedius 1264; read-out: 24 Hr. Minimum Inhibitory Concentration.
In assay [5] the test system is Fusobacterium necrophorum 13859. The description is as above. To be noted: read-out: 24 Hr. Minimum Inhibitory Concentration.
The next assay deals with Actinomyces bovis 13684. Described as above. To be noted: read-out: 24 Hr. Minimum Inhibitory Concentration.
Assay [6] relates to Clostridium innocuum 1373. The description is as above. As to conditions: read-out: 24 Hr. Minimum Inhibitory Concentration.
For assay [7], the system named is Clostridium perfringens 81. The assay can be described thus: microbe, parasite or virus in culture. To be noted: Clostridium perfringens, 81, 24 h, read-out: 24 Hr. Minimum Inhibitory Concentration.
Assay [8] has as its system Eubacterium aerofaciens 1235. The assay can be described thus: Susceptibility of anaerobic bacteria, agar dilution. To be noted: read-out: 24 Hr. Minimum Inhibitory Concentration.
Assay [9] concerns Veillonella alcalescens 1. Described as above. To be noted: read-out: 24 Hr. Minimum Inhibitory Concentration.
For assay [10], the system named is Bacteroides fragilis sp. thetaiotaomicron 1438. The assay is described as above. To be noted: 24 h, read-out: 24 Hr. Minimum Inhibitory Concentration.
In assay [11] the test system is Bacteroides fragilis sp. vulgatus 1563. The assay is described as above. As to conditions: 24 h, read-out: 24 Hr. Minimum Inhibitory Concentration.
Assay [12] concerns Clostridium septicum 1128. Described as above. As to conditions: 24 h, read-out: 24 Hr. Minimum Inhibitory Concentration.
The subject of assay [13] is Clostridium septicum bovine. The description is as above. As to conditions: 24 h, read-out: 24 Hr. Minimum Inhibitory Concentration.
For assay [14], the system named is Propionibacterium acnes 79. Described as above. As to conditions: read-out: 24 Hr. Minimum Inhibitory Concentration.
[15] abbreviates: Thomasclavelia ramosa, 1313, 24 h.
Setting [16] is: Fusobacterium necrophorum, 13859, 24 h.
Where [17] appears, read: [Clostridium] innocuum, 1373, 24 h.
Setting [18] is: Collinsella aerofaciens, 1235, 24 h.
Where [19] appears, read: Thomasclavelia ramosa, 24 h, Clostridium ramosum 1313.
Setting [20] is: Bacteroides fragilis sp. fragilis 1877.
Where [21] appears, read: Bacteroides fragilis sp. fragilis 1936B.
Where [22] appears, read: 24 h, Fusobacterium necrophorum 13859.
[23] abbreviates: 24 h, Clostridium innocuum 1373.
Setting [24] is: Collinsella aerofaciens, 24 h, Eubacterium aerofaciens 1235.
Where [25] appears, read: Veillonella parvula, 24 h, Veillonella alcalescens 1.
Setting [26] is: Bacteroides fragilis sp. thetaiotaomicron 1438.
The mark [27] stands for this setting: Bacteroides fragilis sp. vulgatus 1563.
Where [28] appears, read: Cutibacterium acnes, 24 h, Propionibacterium acnes 79.

With `Cn1nc(-c2ncc([N+](=O)[O-])n2C)c(C(N)=O)c1N` [Compound 2, 5-Amino-1-methyl-3-(1-methyl-5-nitro-2-imidazolyl)pyrazole-4-carboxamide], the MIC in the assay on Clostridium ramosum 1313 (setting [15]) was less than 0.125 µg/mL; in assay [1] (Bacteroides fragilis), less than 0.125 µg/mL; in assay [2] it was less than 0.125 µg/mL; in [3] (Bacteroides fragilis), less than 0.125 µg/mL; in assay [4], 1 µg/mL (≈ 3.77 µM); in assay [5] (setting [16]), less than 0.125 µg/mL. Besides, the MIC in the assay on Actinomyces bovis 13684 (Actinomyces bovis, 13684, 24 h) was less than 0.125 µg/mL; in [6] (setting [17]), less than 0.125 µg/mL; in assay [7] it was less than 0.125 µg/mL; in assay [8] (setting [18]), less than 0.125 µg/mL; in assay [9] (Veillonella parvula, 1, 24 h), less than 0.125 µg/mL; in [10] (Bacteroides fragilis), less than 0.125 µg/mL. Also, the MIC in assay [11] (Bacteroides fragilis) was less than 0.125 µg/mL; in [12], less than 0.125 µg/mL; in assay [13], less than 0.125 µg/mL; in assay [14] (Cutibacterium acnes, 79, 24 h), less than 0.125 µg/mL.

Turning to `Cn1nc(-c2ncc([N+](=O)[O-])n2C)c(C#N)c1N` [Compound 1, 5-Amino-1-methyl-3-(1-methyl-5-nitro-2-imidazolyl)pyrazole-4-carbonitrile], the MIC with Clostridium ramosum 1313 (setting [15]) was less than 0.125 µg/mL; in assay [1] (Bacteroides fragilis), less than 0.125 µg/mL; in assay [2] it was less than 0.125 µg/mL; in [3] (Bacteroides fragilis) it was less than 0.125 µg/mL; in assay [4], 0.5 µg/mL (≈ 2.02 µM); in [5] (setting [16]) it was less than 0.125 µg/mL. Further, the MIC is less than 0.125 µg/mL in the assay on Actinomyces bovis 13684 (Actinomyces bovis, 13684, 24 h); less than 0.125 µg/mL in [6] (setting [17]); less than 0.125 µg/mL in assay [7]; less than 0.125 µg/mL in [8] (setting [18]); less than 0.125 µg/mL in [9] (Veillonella parvula, 1, 24 h); less than 0.125 µg/mL in [10] (Bacteroides fragilis). The MIC in [11] (Bacteroides fragilis) was less than 0.125 µg/mL; in assay [12], less than 0.125 µg/mL; in [13], less than 0.125 µg/mL; in [14] (Cutibacterium acnes, 79, 24 h), less than 0.125 µg/mL.

Regarding `CC(=O)Nc1c(C(=O)O)c(-c2ncc([N+](=O)[O-])n2C)nn1C` [Compound 12, 5-acetamido-1-methyl-3-(1-methyl-5-nitro-2-imidazolyl)pyrazole-4-carboxylic acid], the MIC was 4 µg/mL (≈ 13 µM) in the assay on Clostridium ramosum 1313 (setting [19]); 4 µg/mL (≈ 13 µM) in [1] (setting [20]); 8 µg/mL (≈ 26 µM) in assay [2] (Peptococcus anaerobius 1428); 16 µg/mL (≈ 51.9 µM) in assay [3] (setting [21]); 32 µg/mL (≈ 104 µM) in [4]; less than 0.125 µg/mL in [5] (setting [22]). Besides, the MIC with Actinomyces bovis 13684 (24 h, Actinomyces bovis 13684) worked out at 0.5 µg/mL (≈ 1.62 µM); in assay [6] (setting [23]) it was 8 µg/mL (≈ 26 µM); in [7] it was 8 µg/mL (≈ 26 µM); in assay [8] (setting [24]), 1 µg/mL (≈ 3.24 µM); in [9] (setting [25]), 0.5 µg/mL (≈ 1.62 µM); in [10] (setting [26]), 2 µg/mL (≈ 6.49 µM). The MIC was 1 µg/mL (≈ 3.24 µM) in [11] (setting [27]), 4 µg/mL (≈ 13 µM) in assay [12], 8 µg/mL (≈ 26 µM) in assay [13] and 1 µg/mL (≈ 3.24 µM) in assay [14] (setting [28]).

For `COC=Nc1c(C#N)c(-c2ncc([N+](=O)[O-])n2C)nn1C` [Compound 6, Methyl N-[4-cyano-1-methyl-3-(1-methyl-5-nitro-2-imidazolyl)pyrazol-5-yl]formimidate], the MIC is less than 0.125 µg/mL in the assay with Clostridium ramosum 1313 (setting [15]); less than 0.125 µg/mL in assay [1] (Bacteroides fragilis); less than 0.125 µg/mL in assay [2]; less than 0.125 µg/mL in assay [3] (Bacteroides fragilis); 1 µg/mL (≈ 3.46 µM) in assay [4]; less than 0.125 µg/mL in [5] (setting [16]). Also, the MIC was less than 0.125 µg/mL in the assay on Actinomyces bovis 13684 (Actinomyces bovis, 13684, 24 h); less than 0.125 µg/mL in assay [6] (setting [17]); less than 0.125 µg/mL in assay [7]; less than 0.125 µg/mL in assay [8] (setting [18]); less than 0.125 µg/mL in assay [9] (Veillonella parvula, 1, 24 h); less than 0.125 µg/mL in assay [10] (Bacteroides fragilis). For the same compound, the MIC in assay [11] (Bacteroides fragilis) was less than 0.125 µg/mL; in [12] it was less than 0.125 µg/mL; in assay [13], less than 0.125 µg/mL; in [14] (Cutibacterium acnes, 79, 24 h) it was less than 0.125 µg/mL.

On to `CCCCOC=Nc1c(C#N)c(-c2ncc([N+](=O)[O-])n2C)nn1C` [Compound 7, Butyl N-[4-Cyano-1-methyl-3-(1-methyl-5-nitro-2-imidazolyl)-pyrazol-5-yl]formimidate], for which the MIC is less than 0.125 µg/mL with Clostridium ramosum 1313 (setting [15]); less than 0.125 µg/mL in assay [1] (Bacteroides fragilis); less than 0.125 µg/mL in assay [2]; less than 0.125 µg/mL in [3] (Bacteroides fragilis); 2 µg/mL (≈ 6.04 µM) in assay [4]; less than 0.125 µg/mL in assay [5] (setting [16]). The MIC is less than 0.125 µg/mL in the assay with Actinomyces bovis 13684 (Actinomyces bovis, 13684, 24 h); less than 0.125 µg/mL in assay [6] (setting [17]); less than 0.125 µg/mL in assay [7]; less than 0.125 µg/mL in assay [8] (setting [18]); less than 0.125 µg/mL in assay [9] (Veillonella parvula, 1, 24 h); less than 0.125 µg/mL in assay [10] (Bacteroides fragilis). The MIC in assay [11] (Bacteroides fragilis) was less than 0.125 µg/mL; in assay [12], less than 0.125 µg/mL; in assay [13] it was less than 0.125 µg/mL; in assay [14] (Cutibacterium acnes, 79, 24 h), less than 0.125 µg/mL.

Consider `C=CCOC=Nc1c(C#N)c(-c2ncc([N+](=O)[O-])n2C)nn1C` [Compound 13A, Allyl N-[4-cyano-1-methyl-3-(1-methyl-5-nitro-2-imidazolyl)pyrazol-5-yl]formimidate], for which the MIC with Clostridium ramosum 1313 (setting [19]) was 4 µg/mL (≈ 12.7 µM); in assay [1] (setting [20]) it was 0.5 µg/mL (≈ 1.59 µM); in assay [2] (Peptococcus anaerobius 1428), 2 µg/mL (≈ 6.34 µM); in assay [3] (setting [21]), 2 µg/mL (≈ 6.34 µM); in assay [4], 16 µg/mL (≈ 50.7 µM); in assay [5] (setting [22]) it was less than 0.125 µg/mL. The MIC with Actinomyces bovis 13684 (24 h, Actinomyces bovis 13684) was 0.5 µg/mL (≈ 1.59 µM); in assay [6] (setting [23]) it was 1 µg/mL (≈ 3.17 µM); in assay [7], 1 µg/mL (≈ 3.17 µM); in [8] (setting [24]), less than 0.125 µg/mL; in assay [9] (setting [25]) it was less than 0.125 µg/mL; in assay [10] (setting [26]), 0.25 µg/mL (≈ 0.793 µM). Besides, the MIC is 0.25 µg/mL (≈ 0.793 µM) in [11] (setting [27]), 0.5 µg/mL (≈ 1.59 µM) in [12], 0.5 µg/mL (≈ 1.59 µM) in assay [13] and less than 0.125 µg/mL in [14] (setting [28]).

As to `CCCCC(CC)COC=Nc1c(C#N)c(-c2ncc([N+](=O)[O-])n2C)nn1C` (stereo not shown) [Compound 13D, 2-Ethylhexyl N-[4-cyano-1-methyl-3-(1-methyl-5-nitro-2-imidazolyl)pyrazol-5-yl]formimidate], the MIC with Clostridium ramosum 1313 (setting [19]) is 1 µg/mL (≈ 2.58 µM); in assay [1] (setting [20]), 2 µg/mL (≈ 5.16 µM); in assay [2] (Peptococcus anaerobius 1428), 2 µg/mL (≈ 5.16 µM); in assay [3] (setting [21]), 0.5 µg/mL (≈ 1.29 µM); in assay [4], 16 µg/mL (≈ 41.3 µM); in assay [5] (setting [22]) it was less than 0.125 µg/mL. Also, the MIC with Actinomyces bovis 13684 (24 h, Actinomyces bovis 13684) was 1 µg/mL (≈ 2.58 µM); in [6] (setting [23]), 1 µg/mL (≈ 2.58 µM); in [7] it was 1 µg/mL (≈ 2.58 µM); in assay [8] (setting [24]), 2 µg/mL (≈ 5.16 µM); in assay [9] (setting [25]), 0.25 µg/mL (≈ 0.645 µM); in [10] (setting [26]), 1 µg/mL (≈ 2.58 µM). Moreover, the MIC in [11] (setting [27]) came out at 0.5 µg/mL (≈ 1.29 µM); in assay [12], 2 µg/mL (≈ 5.16 µM); in assay [13], 4 µg/mL (≈ 10.3 µM); in assay [14] (setting [28]) it was 2 µg/mL (≈ 5.16 µM).
